Tested on: mouse model of glucose disposal
Assay: Glucose tolerance test (GTT) in vivo
Conditions: standard glucose tolerance test, data not shown
Method: Given the promising activation and stability data, the peptides were tested in vivo using a standard glucose tolerance test (GTT).

With `CCCCCCCCCCCCCCCCCCOCCOCCOCCOCCOCCC(=O)N[C@@H](CO)C(=O)NCCCC[C@H](NC(=O)[C@H](CO)NC(=O)[C@@H](NC(=O)[C@H](CC(=O)O)NC(=O)[C@H](CO)NC(=O)[C@@H](NC(=O)[C@H](Cc1ccccc1)NC(=O)[C@@H](NC(=O)CNC(=O)[C@H](CCC(=O)O)NC(=O)[C@H](C)NC(=O)[C@@H](N)Cc1c[nH]cn1)[C@@H](C)O)[C@@H](C)O)C(C)C)C(=O)N[C@@H](Cc1ccc(O)cc1)C(=O)N[C@@H](CC(C)C)C(=O)N[C@@H](CCC(=O)O)C(=O)NCC(=O)N[C@@H](CCC(N)=O)C(=O)N[C@@H](C)C(=O)N[C@@H](C)C(=O)N[C@@H](CCCCN)C(=O)N[C@@H](CCC(=O)O)C(=O)N[C@@H](Cc1ccccc1)C(=O)N[C@H](C(=O)N[C@@H](C)C(=O)N[C@@H](Cc1c[nH]c2ccccc12)C(=O)N[C@@H](CC(C)C)C(=O)N[C@H](C(=O)N[C@@H](CCCCN)C(=O)NCC(=O)N[C@@H](CCCNC(=N)N)C(=O)NCC(=O)O)C(C)C)[C@@H](C)CC` [Peptide G2] the “glucose disposal efficiency compared to unmodified GLP-1” value was “improved glucose disposal efficiency”.

Source: US20250092111A1, “POTENT AND STABLE POLYPEPTIDE ANALOGUES VIA SERINE/THREONINE LIGATION” (UNIVERSITY OF WASHINGTON, priority 2022, published 2025)
